PubChem BioAssay (NCI)
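The compound was tested at five concentrations on cells cultured in 96-well plates, with a 48-hour exposure period. TGI denotes the concentration required for complete inhibition of growth.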

Assays:
Assay in all cases: NCI-60 cell line screen, 48 h
K-562 leukemia = test system: K-562 leukemia
KM12 colon = test system: KM12 colon
LOX IMVI melanoma = test system: LOX IMVI melanoma
HOP-62 NSCLC = test system: HOP-62 NSCLC
SK-MEL-5 melanoma = test system: SK-MEL-5 melanoma
NCI-H460 lung = test system: NCI-H460 lung
SK-OV-3 ovarian = test system: SK-OV-3 ovarian
UACC-62 melanoma = test system: UACC-62 melanoma
M14 melanoma = test system: M14 melanoma
HL-60(TB) leukemia = test system: HL-60(TB) leukemia

Structure (SMILES)	TGI (K-562 leukemia) [µM]	TGI (KM12 colon) [µM]	TGI (LOX IMVI melanoma) [µM]	TGI (HOP-62 NSCLC) [µM]	TGI (SK-MEL-5 melanoma) [µM]	TGI (NCI-H460 lung) [µM]	TGI (SK-OV-3 ovarian) [µM]	TGI (UACC-62 melanoma) [µM]	TGI (M14 melanoma) [µM]	TGI (HL-60(TB) leukemia) [µM]
O=C(OCC1OC2OC(c3ccccc3)(n3ccc4c([N+](=O)[O-])ccnc43)OC2C1OC(=O)c1ccccc1)c1ccccc1 (stereo not given)	> 100	> 100	> 100	> 100	> 100	> 100	> 100	> 100	> 100	> 100
CN(C)c1ccc(C2SCC(=O)N2NS(=O)(=O)c2cccc(C(=O)O)c2)cc1 (stereo not given)	> 100	> 100	> 100	> 100	> 100	> 100	> 100	> 100	> 100	> 100
O=c1nc2c(c(-c3ccccc3Cl)[nH]1)COC/C2=C\c1ccccc1Cl		> 100	> 100	> 100	> 100	> 100	> 100	> 100	> 100	> 100
CCOC(=O)c1ccc(N2C(=S)N(C(=O)c3ccccc3)C(=Nc3ccccc3)C2=Nc2ccccc2)cc1	> 100	> 100		> 100	> 100	> 100	> 100	> 100	> 100	
CCCC(C)NC1=C(NC(C)=O)C(=O)c2ccccc2C1=O (stereo not given)	> 100	> 100	> 100	> 100	> 100	> 100	> 100	> 100	> 100	> 100
Cc1cc(C)[n+](CCOc2ccc(/C(=C(/Cl)c3ccccc3)c3ccccc3)cc2)c(C)c1	8.11	2.01	2.14	9.06	1.64	8.18	6.54	4.92	6.88	3.31
O=C(O)CC[N+]1=CCC(c2ccccc2)(c2ccccc2)O1	> 100			> 100	> 100	> 100	> 100	> 100	> 100	
CCC1(C(=O)OC(C)(C)C)OC12C(C)CCCC2C (stereo not given)	52.8	> 100	96.1	> 100	> 100	> 100	> 100	> 100	> 100	37
COc1ccc(Nc2nc(NS(=O)(=O)c3cc(C)c(Cl)cc3S)n[nH]2)cc1	> 100	> 100	> 100	> 100	> 100	> 100	> 100	> 100	> 100	> 100
CCc1ccc2oc(-c3cc(O)c(-c4nc5cc(CC)ccc5o4)cc3O)nc2c1	> 100		> 100	> 100	> 100	> 100	> 100	> 100	> 100	> 100
COC(=O)C1=C2SCc3cccc(c3)CSC3=C(C(=O)OC)SC(=C(S2)S1)S3	> 100	> 100		> 100	> 100	> 100	> 100	> 100	> 100	80.9
COC(=O)[C@H](Cc1ccccc1)NC(=O)[C@H](Cc1ccccc1)NC(=O)[C@@H]1CCCN1C(=O)N[C@H]1C2C=CC(C2)C1C(=O)N1CCC[C@H]1C(=O)N[C@@H](C)C(=O)N[C@H](C(=O)OC)C(C)C (stereo not given in full)	> 100	> 100	> 100	> 100	> 100	> 100	> 100	> 100	> 100	> 100
CN(C)Cc1cc(C(=O)/C=C/c2ccccc2Cl)cc(CN(C)C)c1O	24.3	20.3	13.5	26.2	26.1	18.5			23.3	27.2
CC1=NN(c2ccc(S(=O)(=O)O)cc2)C2(C1)SCC(=O)N2c1nc2ccccc2s1 (stereo not given)	> 100	> 100	> 100	> 100	> 100	> 100	> 100	> 100	> 100	
COC(=O)[C@@H]1CCCN1CCN1CCC[C@H]1C(=O)OC	> 100	> 100		> 100	> 100	> 100	> 100	> 100	> 100	
O=C(NCCCCCCNCc1cccc2ccccc12)Nc1cccc2ccccc12	> 100	> 100	> 100	> 100	> 100	> 100		> 100	> 100	> 100
Cc1ccc([C@H]2CC(=O)C[C@H](c3ccc(C)cc3)C23C(=O)c2ccccc2C3=O)cc1	> 100	> 100	> 100	41.8	> 100	> 100	> 100	> 100	> 100	33.2
CC1Cn2c(nc3ccccc32)NC1=O (stereo not given)	> 100	> 100	> 100	> 100	> 100	> 100	> 100	> 100	> 100	> 100
O=C1CCCCC(=O)OC2(CCCCC2=O)CC1 (stereo not given)	> 100	> 100		> 100	> 100	> 100	> 100	> 100	> 100	
O=C(O)c1ccc(S(=O)(=O)c2ccccc2[N+](=O)[O-])cc1	> 10	> 10	> 10	> 10	> 10	> 10	> 10	> 10	> 10	> 10
NC(=O)NNC(=O)c1nc[nH]c1[N+](=O)[O-]	> 100		> 100	> 100	> 100	> 100	> 100	> 100	> 100	
O=C1c2ccccc2-c2nc(-c3cccc([N+](=O)[O-])c3)nnc21	> 100	> 100			7.65	24.8	> 100	32	73.2	16.8
